Laboratory results reported in BindingDB's records for PubMed 39270452 (Haihe Biopharma).

Molecular target: T1, Ectonucleotide pyrophosphatase/phosphodiesterase family member 1 (Homo sapiens, UniProt P22413)
T1 sequence (P22413 whole entry): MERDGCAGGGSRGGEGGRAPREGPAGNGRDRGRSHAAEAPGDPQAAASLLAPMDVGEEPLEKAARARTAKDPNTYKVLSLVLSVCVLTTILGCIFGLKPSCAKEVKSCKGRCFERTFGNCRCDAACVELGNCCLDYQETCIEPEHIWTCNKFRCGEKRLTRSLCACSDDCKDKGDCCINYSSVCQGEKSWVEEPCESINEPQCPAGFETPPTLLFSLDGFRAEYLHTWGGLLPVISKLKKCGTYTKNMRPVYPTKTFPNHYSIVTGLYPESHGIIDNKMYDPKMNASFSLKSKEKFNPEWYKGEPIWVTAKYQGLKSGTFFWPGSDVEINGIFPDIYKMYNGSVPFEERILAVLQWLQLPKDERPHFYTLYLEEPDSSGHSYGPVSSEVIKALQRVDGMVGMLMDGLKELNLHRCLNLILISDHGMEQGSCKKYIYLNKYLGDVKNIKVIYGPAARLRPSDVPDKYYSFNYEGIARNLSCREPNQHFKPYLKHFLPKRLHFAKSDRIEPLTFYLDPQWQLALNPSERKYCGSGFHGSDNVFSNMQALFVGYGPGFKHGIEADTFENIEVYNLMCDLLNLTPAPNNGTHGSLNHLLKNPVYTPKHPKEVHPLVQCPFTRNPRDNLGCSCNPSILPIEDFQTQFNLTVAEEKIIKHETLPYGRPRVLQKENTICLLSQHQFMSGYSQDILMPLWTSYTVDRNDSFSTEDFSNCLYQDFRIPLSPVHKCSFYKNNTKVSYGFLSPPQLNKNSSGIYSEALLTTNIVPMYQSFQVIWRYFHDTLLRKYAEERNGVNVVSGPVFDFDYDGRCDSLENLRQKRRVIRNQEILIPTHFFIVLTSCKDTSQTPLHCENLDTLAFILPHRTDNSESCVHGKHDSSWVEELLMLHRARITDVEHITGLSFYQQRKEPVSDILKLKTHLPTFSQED
Assay: Inhibition of human recombinant ENPP1 at pH 7.5

IC50: 89 nM
Compound: COc1cc2nccc(Nc3ccc(CC(=O)NO)cc3)c2cc1OC [US20240383893, Compound A-1]
